One data set can be described thus: circular dichroism. The note with it: 10 mM Tris-HCl; pH 7; 25 °C; 50 uM.
The target in data set [1] is galectin-3 (Gal-3) carbohydrate-binding domain. Conditions: read-out: Kd to Gal-3; cited from earlier work.
The format of data set [2] is physicochemical. Conditions: pH 7.
For the next data set, the target named is galectin-3 (Gal-3) (Homo sapiens, UniProt P17931). The class given is binding.

*1 amine or outer side, *2 acyl side, *3 side chain or, on linkers, in order; H or OH if unused. Where a SMILES comes first, the peptide text is derived from it. Bridges are numbered along the chain shown (N, C = ends). Biphenyl(4,4'-CH2)2 = c1cc(-c2ccc(C[*:2])cc2)ccc1C[*:1]

galectin-3 (Gal-3), sequence (P17931 whole entry): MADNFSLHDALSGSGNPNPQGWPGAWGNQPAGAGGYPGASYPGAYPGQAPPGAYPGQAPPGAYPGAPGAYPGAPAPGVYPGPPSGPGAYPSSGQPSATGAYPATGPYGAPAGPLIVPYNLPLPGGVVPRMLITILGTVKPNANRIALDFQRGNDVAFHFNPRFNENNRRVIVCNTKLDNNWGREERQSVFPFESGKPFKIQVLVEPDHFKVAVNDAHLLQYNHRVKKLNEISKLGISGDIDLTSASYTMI

Turning to `C[C@H](NC(=O)[C@H](CCCCN)NC(=O)[C@H](CCCCN)NC(=O)[C@@H]1CSCc2ccc(cc2)-c2ccc(cc2)CSC[C@H](NC(=O)[C@H](CCC(=O)O)NC(=O)[C@@H]2CCCN2C(=O)[C@H](C)NC(=O)CN)C(=O)N[C@@H](CCCCN)C(=O)N[C@@H](CCCNC(=N)N)C(=O)N[C@@H](CCCCN)C(=O)N[C@@H](CCC(=O)O)C(=O)N[C@@H](Cc2ccc(O)cc2)C(=O)N[C@@H](CCC(=O)O)C(=O)N1)C(=O)NCC(N)=O` (H-GAPECKRKEYECKKAG-NH2; linker 5-12 via Biphenyl(4,4'-CH2)2), in the data set “circular dichroism”, the helicity was determined as 30%.

As to `C[C@H](NC(=O)CN)C(=O)N[C@@H](CCC(N)=O)C(=O)N[C@@H](CCC(=O)O)C(=O)N[C@H]1CSCc2ccc(cc2)-c2ccc(cc2)CSC[C@@H](C(=O)N[C@@H](CCCCN)C(=O)N[C@@H](CCCCN)C(=O)N[C@@H](C)C(=O)NCC(N)=O)NC(=O)[C@H](C)NC(=O)[C@@H]2CCCN2C(=O)[C@H](CCC(=O)O)NC(=O)[C@H](CCCCN)NC(=O)[C@@H]2CCCN2C(=O)[C@@H]2CCCN2C1=O` (H-GAQECPPKEPACKKAG-NH2; linker 5-12 via Biphenyl(4,4'-CH2)2), in the data set “circular dichroism”, the helicity is 14%.

On to `CC(C)[C@@H]1NC(=O)[C@@H](NC(=O)[C@H](CCC(=O)O)NC(=O)[C@H](CCC(N)=O)NC(=O)[C@H](C)NC(=O)CN)CSCc2ccc(cc2)-c2ccc(cc2)CSC[C@@H](C(=O)N[C@@H](CCCCN)C(=O)N[C@@H](CO)C(=O)N[C@@H](C)C(=O)NCC(N)=O)NC(=O)[C@H](CO)NC(=O)[C@H](CCC(N)=O)NC(=O)[C@H](CCC(=O)O)NC(=O)[C@H](CCCCN)NC(=O)[C@H](Cc2ccc(O)cc2)NC1=O` (H-GAQECVYKEQSCKSAG-NH2; linker 5-12 via Biphenyl(4,4'-CH2)2), for which the helicity in the data set “circular dichroism” was found to be 32%.

`CC(=O)N[C@H]1C(O)O[C@H](CO)[C@@H](O[C@@H]2O[C@H](CO)[C@H](O)[C@H](O)[C@H]2O)[C@@H]1O` (some centres unmarked) [N-acetyllactosamine]: the equilibrium dissociation constant (Kd) in data set [1] was 200 µM.

H-GAAECAAKEAACKAAG-NH2 [control]: in data set [2], the “helicity (α-helical content)” value was found to be 3.4%.

Regarding “H-GAPECKRKEYECKKAG-GGGK-(flu)-NH2 [p10-flu]”, the “Gal-3 binding of non-stapled peptide (fluorescent intensity change)” value on galectin-3 (Gal-3) is “did not show any Gal-3 binding”.

As to “H-GAQECPPKEPACKKAG-GGGK-(flu)-NH2 (sidechain bridge or staple) [p8-flu-BP]”, the “effect of excess lactose on fluorescent intensity change with Gal-3” value at galectin-3 (Gal-3) is listed as “did not significantly affect”.

Regarding “H-GAQECVYKEQSCKSAG-GGGK-(flu)-NH2 [p4-flu]”, the “Gal-3 binding of non-stapled peptide (fluorescent intensity change)” value at galectin-3 (Gal-3) is “did not show significant fluorescent changes”.
